Source: publication PMC10141580, “Cyclic Dichalcogenides Extend the Reach of Bioreductive Prodrugs to Harness Thiol/Disulfide Oxidoreductases: Applications to seco-Duocarmycins Targeting the Thioredoxin System” (ACS Central Science, 2023)
Several values for one entry are separate records, joined by “and”; a condition that tells them apart may be missing. Identical values can stand only once. Like-named read-outs stand apart in the source and are kept apart here.

Test system: NCI-60 standardized human tumor cell line panel
Assay: cells
Assay type: cell-based

COc1cc2cc(C(=O)N3C[C@@H](CCl)c4c3cc(OC(=O)N(CCC(=O)N3CCN(C)CC3)C3CCCCC3)c3ccccc43)[nH]c2c(OC)c1OC [P-CC60-CBI-TMI]
NCI-60 screening: Log(GI50): -5.81 and -5.62
NCI-60 screening: Log(GI50) (786-0 (RE) cell line, log10 of GI50 in M): -5.76
GI50 (786-0 (RE) cell line, read-out: NCI-60 screening: Raw GI50): 1700 nM
GI50 (786-0, read-out: GI50): 1700 nM
NCI-60 screening: Log(GI50) (A498 (RE) cell line, log10 of GI50 in M): -5.56
GI50 (A498 (RE) cell line, read-out: NCI-60 screening: Raw GI50): 2800 nM
GI50 (A498, read-out: GI50): 2800 nM
GI50 (A549/ATCC, read-out: GI50): 2000 nM
NCI-60 screening: Log(GI50) (ACHN (RE) cell line, log10 of GI50 in M): -6.31
GI50 (ACHN, read-out: GI50): 490 nM
GI50 (BT-549, read-out: GI50): 1600 nM
NCI-60 screening: Log(GI50) (CAKI-1 (RE) cell line, log10 of GI50 in M): -5.83
GI50 (CAKI-1 (RE) cell line, read-out: NCI-60 screening: Raw GI50): 1500 nM
GI50 (CAKI-1, read-out: GI50): 1500 nM
GI50 (CCRF-CEM, read-out: GI50): 990 nM
GI50 (COLO 205, read-out: GI50): 1400 nM
NCI-60 screening: Log(GI50) (DU-145 (PR) cell line, log10 of GI50 in M): -6.34
GI50 (DU-145, read-out: GI50): 460 nM
GI50 (EKVX, read-out: GI50): 1900 nM
GI50 (HCC-2998, read-out: GI50): 1500 nM
GI50 (HCT-15, read-out: GI50): 1700 nM
GI50 (HCT-116, read-out: GI50): 1500 nM
GI50 (HL-60(TB), read-out: GI50): 750 nM
GI50 (HOP-62, read-out: GI50): 590 nM
GI50 (HOP-92, read-out: GI50): 2500 nM
GI50 (HT29, read-out: GI50): 1500 nM
NCI-60 screening: Log(GI50) (IGROV1 (OV) cell line, log10 of GI50 in M): -5.64
GI50 (IGROV1 (OV) cell line, read-out: NCI-60 screening: Raw GI50): 2300 nM
GI50 (IGROV1, read-out: GI50): 2300 nM
GI50 (K-562, read-out: GI50): 680 nM
GI50 (KM12, read-out: GI50): 2100 nM
GI50 (LOX IMVI, read-out: GI50): 1100 nM
GI50 (M14, read-out: GI50): 1500 nM
GI50 (MALME-3M, read-out: GI50): 1600 nM
GI50 (MCF7, read-out: GI50): 320 nM
GI50 (MDA-MB-435, read-out: GI50): 1800 nM
GI50 (MDA-MB-468, read-out: GI50): 690 nM
GI50 (MOLT-4, read-out: GI50): 590 nM
GI50/IC50, mean (NCI-60 vs ProliFiler, 19 overlapping cell lines): 4.6
GI50 (NCI-H23, read-out: GI50): 470 nM
GI50 (NCI-H226, read-out: GI50): 1400 nM
NCI-60 screening: Log(GI50) (NCI-H460 (LC) cell line, log10 of GI50 in M): -6.29
GI50 (NCI-H460, read-out: GI50): 510 nM
NCI-60 screening: Log(GI50) (NCI-H522 (LC) cell line, log10 of GI50 in M): -5.77
GI50 (NCI-H522 (LC) cell line, read-out: NCI-60 screening: Raw GI50): 1700 nM
GI50 (NCI-H522, read-out: GI50): 1700 nM
NCI-60 screening: Log(GI50) (OVCAR-3 (OV) cell line, log10 of GI50 in M): -5.68
GI50 (OVCAR-3 (OV) cell line, read-out: NCI-60 screening: Raw GI50): 2100 nM
GI50 (OVCAR-3, read-out: GI50): 2100 nM
NCI-60 screening: Log(GI50) (OVCAR-4 (OV) cell line, log10 of GI50 in M): -5.63
GI50 (OVCAR-4 (OV) cell line, read-out: NCI-60 screening: Raw GI50): 2300 nM
GI50 (OVCAR-4, read-out: GI50): 2300 nM
NCI-60 screening: Log(GI50) (OVCAR-5 (OV) cell line, log10 of GI50 in M): -5.29
GI50 (OVCAR-5, read-out: GI50): 5100 nM
NCI-60 screening: Log(GI50) (OVCAR-8 (OV) cell line, log10 of GI50 in M): -5.78
GI50 (OVCAR-8 (OV) cell line, read-out: NCI-60 screening: Raw GI50): 1700 nM
GI50 (OVCAR-8, read-out: GI50): 1700 nM
NCI-60 screening: Log(GI50) (PC-3 (PR) cell line, log10 of GI50 in M): -5.5
GI50 (PC-3, read-out: GI50): 3100 nM
GI50 (RPMI-8226, read-out: GI50): 1500 nM
NCI-60 screening: Log(GI50) (RXF 393 (RE) cell line, log10 of GI50 in M): -5.97
GI50 (RXF 393 (RE) cell line, read-out: NCI-60 screening: Raw GI50): 1100 nM
GI50 (RXF 393, read-out: GI50): 1100 nM
GI50 (SF-268, read-out: GI50): 1500 nM
GI50 (SF-295, read-out: GI50): 1500 nM
GI50 (SF-539, read-out: GI50): 1300 nM
GI50 (SK-MEL-5, read-out: GI50): 1600 nM
GI50 (SK-MEL-28, read-out: GI50): 3600 nM
NCI-60 screening: Log(GI50) (SK-OV-3 (OV) cell line, log10 of GI50 in M): -5.67
GI50 (SK-OV-3 (OV) cell line, read-out: NCI-60 screening: Raw GI50): 2200 nM
GI50 (SK-OV-3, read-out: GI50): 2200 nM
NCI-60 screening: Log(GI50) (SN12C (RE) cell line, log10 of GI50 in M): -5.92
